The source of these data is ChEMBL document CHEMBL1138771, “Novel arylsulfoanilide-oxindole hybrid as an anticancer agent that inhibits translation initiation” (J Med Chem, 2004).

Assay [1] has as its system NIH 3T3 (Mus musculus). The experiment in a line: Ratio of the peak heights normalized to the peak of clotrimazole as a reference was a measure of intracellular [Ca2+] stores depletion in NIH 3T3 cell.
The subject of assay [2] is A549. The experiment in a line: Concentration required for growth inhibition of human lung cancer cells (A549). The format is functional.
Assay [3] deals with DU-145. The experiment in a line: Concentration required for growth inhibition of human prostate cancer cells (DU145) was determined. The format is functional, cell-based.

For `O=S(=O)(Nc1ccccc1)c1ccc(Br)cc1`, the Ratio in assay [1] is given as 0.38. Moreover, in assay [2], growth was halved (GI50) at 30 µM.
In the case of `COc1ccc(S(=O)(=O)Nc2ccccc2)cc1`, the Ratio in assay [1] is 0.63. The GI50 in assay [2] was found to be 16 µM.
The like results for `CC(=O)Nc1ccc(S(=O)(=O)Nc2ccc(C)c(O)c2)cc1` were, in that order, 0.19 and 48 µM.
The like results for `Cc1ccc(NS(=O)(=O)c2ccc(Br)cc2)cc1O` were, in that order, 0.27 and 20 µM.
The corresponding values for `CC(C)(C)c1ccc(S(=O)(=O)Nc2cccc(O)c2)cc1` are 0.55 and 12 µM.
On to `O=S(=O)(Nc1ccccc1)c1ccc(-c2ccccc2)cc1`, for which, in assay [1], the Ratio is on record as 1.37. The compound further displayed a GI50 in assay [2] of 17 µM.
The corresponding values for `CC(C)(C)c1ccc(S(=O)(=O)Nc2ccccc2O)cc1` are 1.17 and 13 µM.
The like results for `Cc1ccc(NS(=O)(=O)c2ccc(C(C)(C)C)cc2)cc1O` were, in that order, 1.12 and 6 µM.
`Cc1ccc(NS(=O)(=O)c2ccc(-c3ccccc3)cc2)cc1O`: the Ratio in assay [1] is 0.72. It took 9 µM to inhibit growth in assay [2] by half (GI50).
The like results for `CC(C)(C)c1ccc(S(=O)(=O)Nc2ccc(O)cc2)cc1` were, in that order, 0.33 and 14 µM.
For the compound `Cc1cc(O)c(NS(=O)(=O)c2ccc(C(C)(C)C)cc2)cc1C1(c2ccccc2)C(=O)Nc2ccccc21` (stereo unspecified), the Ratio in assay [1] was 0.44. In addition, in assay [2], the GI50 was more than 20 µM.
The corresponding values for `Cc1ccccc1NS(=O)(=O)c1ccc(C(C)(C)C)cc1` are 0.49 and more than 80 µM.
The corresponding values for `O=S(=O)(Nc1ccccc1)c1ccc(I)cc1` are 0.87 and 23 µM.
On to `CC(C)(C)c1ccc(O)c(C2(c3ccccc3)C(=O)Nc3ccccc32)c1` (stereo unspecified), for which, in assay [1], the Ratio was determined as 1.1. In assay [3], this compound displayed an IC50 of 2.49 µM. The compound further displayed a GI50 in assay [2] of 3 µM.
As for `Cc1ccc(NS(=O)(=O)c2ccc(C(C)(C)C)cc2)cc1`, in assay [1], the Ratio came to 1.11. In addition, in assay [2], the GI50 worked out at 11 µM.
The like results for `COc1ccc(S(=O)(=O)Nc2ccc(C)c(O)c2)cc1` were, in that order, 0.12 and 51 µM.
Turning to `CC(C)(C)c1ccc(S(=O)(=O)Nc2ccccc2)cc1`, the Ratio in assay [1] amounted to 1.44. This compound registered a 50% growth inhibitory concentration (GI50) in assay [2] of 16 µM.
The corresponding values for `CN(c1ccccc1)S(=O)(=O)c1ccc(C(C)(C)C)cc1` are 0.14 and 30 µM.
The corresponding values for `O=[N+]([O-])c1ccc(S(=O)(=O)Nc2ccccc2)cc1` are 0.13 and 52 µM.
On to `Cc1ccc(NS(=O)(=O)c2ccc([N+](=O)[O-])cc2)cc1O`, for which the Ratio in assay [1] was found to be 0.14. The GI50 in assay [2] came to 29 µM.
In the case of `Cc1cc(C2(c3ccccc3)C(=O)Nc3ccccc32)c(NS(=O)(=O)c2ccc(Oc3ccccc3)cc2)cc1O` (stereo unspecified), the Ratio in assay [1] is given as 0. This compound yielded a 50% growth inhibitory concentration (GI50) in assay [2] of 5 µM.
`Cc1ccc(NS(=O)(=O)c2ccc(I)cc2)cc1O`: the Ratio in assay [1] is given as 0.45. This compound registered a GI50 in assay [2] of 15 µM.
The like results for `Cc1ccc(NS(=O)(=O)c2ccc(C(C)(C)C)cc2)c(O)c1` were, in that order, 1.44 and 8 µM.
The like results for `Cc1cccc(NS(=O)(=O)c2ccc(C(C)(C)C)cc2)c1` were, in that order, 0.95 and 80 µM.
The corresponding values for `Cc1ccc(NS(=O)(=O)c2ccc(Oc3ccccc3)cc2)cc1O` are 1.1 and 7 µM.
For the compound `Cc1cc(C2(c3ccccc3)C(=O)Nc3ccccc32)c(NS(=O)(=O)c2ccc(C(C)(C)C)cc2)cc1O` (stereo unspecified), the Ratio in assay [1] turned out to be 1.06. This compound displayed a half-inhibitory concentration (IC50) in assay [3] of 1.08 µM. In addition, the GI50 in assay [2] was 0.8 µM.
As for `Cc1cc(C2(c3ccccc3)C(=O)Nc3ccccc32)c(NS(=O)(=O)c2ccc(-c3ccccc3)cc2)cc1O` (stereo unspecified), the Ratio in assay [1] amounted to 0. It took 4 µM to inhibit growth in assay [2] by half (GI50).
On to `O=C1Nc2ccccc2C1(c1ccccc1)c1ccccc1`, for which, in assay [1], the Ratio was found to be 0.87. The IC50 in assay [3] came to 12.5 µM. Moreover, in assay [2], halving of growth (GI50) required 13 µM.
For `O=S(=O)(Nc1ccccc1)c1ccccc1` [PHENYL(PHENYLSULFONYL)AMINE], the Ratio in assay [1] came to 0. In addition, in assay [2], the GI50 is more than 80 µM.
